Consider 4 compounds from patent US7772208B2, “2′,3′-dideoxynucleoside analogues for the treatment or prevention of Flaviviridae infections” (Pharmasset, Inc., priority 2002, dated 2010).

Assay [1] has as its target T1, NS5B enzyme (HCV polymerase, NS5Bt) (Hepatitis C virus genotype 1a, UniProt P27958).
T1 construct: added a methionine and alanine to the N terminus and truncated the C-terminal 21 amino acids, replacing them with a hexahistidine tag; hexahistidine (C); made in house; host or cells: E. coli BL21(DE3)pLysS, plasmid pRSK1 in pET32a
In words: HCV polymerase (RdRp) inhibition assay. The format is biochemical. The note with it: for inhibition when treated: FIG. 4; for change of inhibition with increase in manganese concentration: FIG. 5. From the text:
The HCV NS5B gene was amplified from a genotype 1A, clone, p134/pBRTM 2029-3011 (ΔAvrII). The primers used added a methionine and alanine to the N terminus and truncated the C-terminal 21 amino acids, replacing them with a hexahistidine tag, which allowed increased soluble product in E. coli and metal affinity purification. The PCR product was cloned into the pET32a expression construct (Novagen) at the NcoI and BamHI sites and the resultant plasmid (pRSK1) was sequenced by the Stanford PAN facility using standard methods. […] (DE3)pLysS cells (Novagen) were transformed by pRSK1 and grown at 37° C. to an optical density of 0.1, at which time the cells were switched to room temperature. At an optical density of 0.3-0.5, isopropyl-β-D-thiogalactopyanoside was added to a final concentration of 0.5 mM and the cells were harvested after 6 h. The cell pellet was frozen, thawed and resuspended in buffer containing 50 mM sodium phosphate pH 7.0, 10% glycerol, 0.3 M NaCl, 2 mM β-mercaptoethanol, 0.5% β-octyl-glucoside. The cell extract was sonicated, and cellular debris removed by centrifugation. The extract was incubated batch-wise with Talon metal affinity resin (Clontech), washed extensively with the above buffer, and then poured into a column for a stepwise imidazole elution. The polymerase, referred to as NS5Bt, eluted specifically between 70 mM and 250 mM imidazole and was ˜90% pure.
RdRp assays were a modification of the assays described in Kao et al. (Kao, C, C.; Yang, X.; Kline, A.; Wang, Q. M.; Barket, D.; Heinz, B. A. (2000) J. Virol. 74, 11121-11128). The template used allows for de novo synthesis and has its 3′ termini blocked by puromycin, which largely prevents the high molecular weight product from forming and allows for predominantly 24- and 25-nucleotide products to be seen. Each reaction contained 50 mM Hepes-NaOH pH 8.0, 0.65 μM template, 0.1 μM purified NS5Bt described above, 250 μM GTP, 5 μM UTP, 0.6 μM CTP, and 1 μM [αP32] ATP, 0.5 mM MnCl2, 7 mM MgCl2, 18 mM DTT, and the stated concentration of the analog. Reaction mixes were incubated at 27° C. for 45 min. Reactions were terminated by the addition of ⅕ the volume of 5× proteinase K mix (250 μg proteinase K/ml [Sigma, St Louis, Mo.], 375 mM Hepes-NaOH pH 8, 0.5% SDS, 25 mM EDTA) and incubated for 10 min at 37° C. Reactions were then precipitated with isopropanol, and glycogen as a carrier, and washed twice with 70% ethanol to remove salt. The RNA was resuspended in formamide loading buffer, heated to 65° C. for 3 min and loaded on a 20% acrylamide/7 M urea/TBE denaturing gel and separated by electrophoresis at 50° C. Quantification of bands was performed using Phosphoimager analysis.

Another assay has as its system HCV protease. The note with it: SDS-PAGE and autoradiography assay; cited from earlier work.

SMILES strings stand for the structures. Counter-ions that a name gives are not always drawn.

T1 sequence (P27958 2421-2990): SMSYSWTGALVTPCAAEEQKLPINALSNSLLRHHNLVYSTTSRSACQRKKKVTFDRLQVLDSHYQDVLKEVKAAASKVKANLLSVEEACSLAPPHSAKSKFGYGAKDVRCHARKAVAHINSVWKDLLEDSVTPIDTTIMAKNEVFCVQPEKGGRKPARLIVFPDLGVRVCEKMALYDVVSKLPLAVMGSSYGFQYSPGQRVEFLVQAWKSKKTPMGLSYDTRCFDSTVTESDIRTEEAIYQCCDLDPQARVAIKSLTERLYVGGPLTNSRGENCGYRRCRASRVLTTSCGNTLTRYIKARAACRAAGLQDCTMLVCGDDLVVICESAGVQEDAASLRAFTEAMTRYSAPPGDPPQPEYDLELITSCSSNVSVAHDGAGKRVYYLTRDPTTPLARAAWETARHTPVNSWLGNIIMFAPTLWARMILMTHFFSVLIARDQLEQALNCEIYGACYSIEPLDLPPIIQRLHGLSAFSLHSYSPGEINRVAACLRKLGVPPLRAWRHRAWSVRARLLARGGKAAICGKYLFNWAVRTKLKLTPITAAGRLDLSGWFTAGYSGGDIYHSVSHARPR

As to `Nc1nc(=O)n([C@@H]2CC[C@H](CO)O2)cc1F` [L-ddFC, β-L-2′,3′-Dideoxy-5-fluorocytidine], in assay [1], the inhibition when treated result was “dose-dependent inhibition” and the “change of inhibition with increase in manganese concentration” value is “increase of inhibition”. For the compound `CCCC(=O)c1cc2c(c(O)c1C)C(=O)C(=O)c1c(O)cccc1-2` [Sch 68631], in the assay on HCV protease, the “activity against HCV protease” value is “micromolar activity”.

Regarding `Nc1nc(=O)n([C@@H]2CC[C@H](COP(=O)(O)OP(=O)(O)OP(=O)(O)O)O2)cc1F` [β-L-ddFC triphosphate, β-L-2′,3′-Dideoxy-5-fluorocytidine triphosphate, triethylammonium salt], the “inhibition of NS5B enzyme” value in assay [1] (FIG. 2 and FIG. 3, triphosphate) is reported as “dose-dependent inhibition”. Take `Nc1ccn([C@@H]2CC[C@H](CO)O2)c(=O)n1` [L-ddC, β-L-2′,3′-dideoxycytidine]: in assay [1], the inhibition when treated result is on record as “no inhibition” and the “change of inhibition with increase in manganese concentration” value is “not affected”.
